Assay results taken from ChEMBL document CHEMBL5500339, “4-Hydroxy-2-pyridone derivatives with antitumor activity produced by mangrove endophytic fungus Talaromyces sp. CY-3” (Eur J Med Chem, 2024).

Experiments:
NCI-H1703 [1] = experiment: Induction of cell cycle arrest in human NCI-H1703 cells assessed as accumulation of cells at G1/G0 phase at 2 uM incubated for 24 hrs by flow cytometric analysis (reference value: 42.06 %); assay type: functional
NCI-H1703 [2] = experiment: Induction of cell cycle arrest in human NCI-H1703 cells assessed as accumulation of cells at G2/M phase at 2 uM incubated for 24 hrs by flow cytometric analysis (reference value: 29.88 %); assay type: functional
NCI-H1703 [3] = experiment: Induction of cell cycle arrest in human NCI-H1703 cells assessed as accumulation of cells at S phase at 2 uM incubated for 24 hrs by flow cytometric analysis (reference value: 28.06 %); assay type: functional
A549 [4] = experiment: Induction of cell cycle arrest in human A549 cells assessed as accumulation of cells at G2/M phase at 2 uM incubated for 24 hrs by flow cytometric analysis (reference value: 17.2 %); assay type: functional
A549 [5] = experiment: Induction of cell cycle arrest in human A549 cells assessed as accumulation of cells at G1/G0 phase at 2 uM incubated for 24 hrs by flow cytometric analysis (reference value: 51.49 %); assay type: functional
A549 [6] = experiment: Induction of cell cycle arrest in human A549 cells assessed as accumulation of cells at S phase at 2 uM incubated for 24 hrs by flow cytometric analysis (reference value: 31.31 %); assay type: functional
PC-3 = experiment: Cytotoxicity against human PC-3 cells assessed as reduction in cell viability incubated for 48 hrs by MTT assay; assay type: functional, cell-based; conditions: PC-3, 48 h
SNB-19 = experiment: Cytotoxicity against human SNB-19 cells assessed as reduction in cell viability incubated for 48 hrs by MTT assay; assay type: functional, cell-based; conditions: SNB-19, 48 h
MDA-MB-435 = experiment: Cytotoxicity against human MDA-MB-435 cells assessed as reduction in cell viability incubated for 48 hrs by MTT assay; assay type: functional, cell-based; conditions: MDA-MB-435, 48 h
HCT-116 = experiment: Cytotoxicity against human HCT-116 cells assessed as reduction in cell viability incubated for 48 hrs by MTT assay; assay type: functional, cell-based; conditions: HCT-116, 48 h
A549 [7] = experiment: Cytotoxicity against human A549 cells assessed as reduction in cell viability incubated for 48 hrs by MTT assay; assay type: functional, cell-based; conditions: A549, 48 h
MDA-MB-231 = experiment: Cytotoxicity against human MDA-MB-231 cells assessed as reduction in cell viability incubated for 48 hrs by MTT assay; assay type: functional, cell-based; conditions: MDA-MB-231, 48 h

SMILES: CC(=O)c1c(C)c2cnc(Nc3ccc(N4CCNCC4)cn3)nc2n(C2CCCC2)c1=O [PALBOCICLIB]
- Activity (NCI-H1703 [1]): 72.21%
- Activity (NCI-H1703 [2]): 20.91%
- Activity (NCI-H1703 [3]): 6.88%
- Activity (A549 [4]): 4.7%
- Activity (A549 [5]): 89.43%
- Activity (A549 [6]): 5.87%

SMILES: CC[C@H](C)C[C@@H](C)/C=C(\C)[C@@H]1O[C@H](c2c(O)c(-c3ccc(O)cc3)c[nH]c2=O)CC[C@H]1C
- IC50 (PC-3): 6.65 µM
- IC50 (SNB-19): > 50 µM
- IC50 (MDA-MB-435): 10 µM
- IC50 (HCT-116): 2.51 µM
- IC50 (A549 [7]): 3.46 µM
- IC50 (MDA-MB-231): 4.4 µM

SMILES: CC[C@H](C)C[C@@H](C)/C=C(\C)[C@@H]1O[C@H](c2c(O)c(-c3ccccc3)cn(C)c2=O)CC[C@H]1C
- IC50 (PC-3): 16.3 µM
- IC50 (SNB-19): 5.76 µM
- IC50 (MDA-MB-435): 24.6 µM
- IC50 (HCT-116): 2.45 µM
- IC50 (A549 [7]): 9.51 µM
- IC50 (MDA-MB-231): 7.84 µM

SMILES: CC[C@H](C)C[C@@H](C)/C=C(\C)[C@@H]1O[C@H](c2c(O)c(-c3ccc(O)cc3)cn(C)c2=O)CC[C@H]1C
- IC50 (PC-3): 43 µM
- IC50 (SNB-19): 9.04 µM
- IC50 (MDA-MB-435): 9.41 µM
- IC50 (HCT-116): 7.74 µM
- IC50 (A549 [7]): 14.9 µM
- IC50 (MDA-MB-231): 14.9 µM

SMILES: CC[C@H](C)C[C@@H](C)/C=C(\C)[C@@H]1O[C@H](c2c(O)c(-c3ccc(O)cc3)cn(C)c2=O)CC[C@]1(C)O
- IC50 (PC-3): 8.1 µM
- IC50 (SNB-19): > 50 µM
- IC50 (MDA-MB-435): 6.15 µM
- IC50 (HCT-116): 10.5 µM
- IC50 (A549 [7]): 11.1 µM
- IC50 (MDA-MB-231): 8.49 µM

SMILES: C/C=C/[C@@H]1Oc2c(-c3ccccc3)c[nH]c(=O)c2[C@@H]2[C@H]1CCC[C@H]2C
- IC50 (PC-3): 36.1 µM
- IC50 (SNB-19): 13.4 µM
- IC50 (MDA-MB-435): 29.5 µM
- IC50 (HCT-116): 16.8 µM
- IC50 (A549 [7]): > 50 µM
- IC50 (MDA-MB-231): > 50 µM

SMILES: C/C=C/[C@@H]1Oc2c(-c3ccccc3)cn(O)c(=O)c2[C@@H]2[C@H]1CCC[C@H]2C
- IC50 (PC-3): 49.1 µM
- IC50 (SNB-19): 20.3 µM
- IC50 (MDA-MB-435): 20.3 µM
- IC50 (HCT-116): 14.4 µM
- IC50 (A549 [7]): 32.7 µM
- IC50 (MDA-MB-231): 20.1 µM

SMILES: CC[C@H](C)C[C@@H](C)/C=C(\C)[C@@H]1O[C@H](c2c(O)c(-c3ccccc3)c[nH]c2=O)CC[C@H]1C
- IC50 (PC-3): 11.4 µM
- IC50 (SNB-19): > 50 µM
- IC50 (MDA-MB-435): 7.29 µM
- IC50 (HCT-116): > 50 µM
- IC50 (A549 [7]): 3.89 µM
- IC50 (MDA-MB-231): 5 µM

SMILES: CC[C@H](C)C[C@@H](C)/C=C(\C)[C@@H]1O[C@H](c2c(O)c(-c3ccc(O)cc3)cn(C)c2=O)CC[C@H]1CO
- IC50 (PC-3): > 50 µM
- IC50 (SNB-19): > 50 µM
- IC50 (MDA-MB-435): 2.3 µM
- IC50 (HCT-116): 10.5 µM
- IC50 (A549 [7]): 8.41 µM
- IC50 (MDA-MB-231): > 50 µM

SMILES: CC[C@H](C)C[C@@H](C)/C=C(\C)[C@@H]1O[C@H](c2c(O)c(-c3ccc(O)cc3)cn(C)c2=O)CC=C1C
- IC50 (PC-3): > 50 µM
- IC50 (SNB-19): 40.4 µM
- IC50 (MDA-MB-435): 34.9 µM
- IC50 (HCT-116): 29.2 µM
- IC50 (A549 [7]): 48.9 µM
- IC50 (MDA-MB-231): 43.1 µM

SMILES: CC[C@H](C)C[C@@H](C)/C=C(\C)[C@H]1O[C@@H](c2c(O)c(-c3ccccc3)c[nH]c2=O)CC=C1C
- IC50 (PC-3): 2.18 µM
- IC50 (SNB-19): 6.76 µM
- IC50 (MDA-MB-435): 9.02 µM
- IC50 (HCT-116): 1.76 µM
- IC50 (A549 [7]): 3.81 µM
- IC50 (MDA-MB-231): 5.28 µM

SMILES: CC[C@H](C)C[C@@H](C)/C=C(\C)[C@@H]1O[C@H](c2c(O)c(-c3ccccc3O)cn(C)c2=O)CC[C@H]1C
- IC50 (PC-3): 18.6 µM
- IC50 (SNB-19): > 50 µM
- IC50 (MDA-MB-435): 6.95 µM
- IC50 (HCT-116): 7.57 µM
- IC50 (A549 [7]): > 50 µM
- IC50 (MDA-MB-231): 12.7 µM
